# Source: patent US9045490B2, “Use of parthenolide derivatives as antileukemic and cytotoxic agents” (University of Kentucky, priority 2003, dated 2015)
# Assays:
# [1] = test system: primary acute myelogenous leukemia (AML) cells; assay: Assay for antileukemic activity (Annexin V/7-AAD apoptosis analysis by flow cytometry); format: cell-based; settings: 24 hours of culture
# Experimental: For apoptosis analysis, one million primary acute myelogenous leukemia (AML) cells were washed with cold PBS and resuspended in 200 microliters of Annexin binding buffer (10 mM HEPES/NaOH pH 7.4; 140 mM NaCl; 2.5 mM CaCl2). Annexin V-FITC (Pharmingen) and 0.25 mg/mL 7-AAD (7-aminoactinomycin D, Molecular Probes, CA) were added and the tubes were incubated at room temperature in the dark for 15 minutes. Cells were then diluted with 200 microliters of Annexin binding buffer and analyzed immediately by flow cytometry. Viable cells were identified as failing to label with Annexin V or 7-AAD. Cells beginning to die label with Annexin V, and as membrane integrity is lost, will also label with 7-AAD. […] Data are normalized to untreated control specimens. The data are in Table 1 for aminoparthenolide derivatives and Table 2 for the salts of some aminoparthenolides.
# [2] = test system: Healthy human bone marrow cells; assay: Cytotoxicity to healthy bone marrow cells (same Annexin V/7-AAD assay); format: cell-based; settings: 10 μM
# Experimental: For apoptosis analysis, one million primary acute myelogenous leukemia (AML) cells were washed with cold PBS and resuspended in 200 microliters of Annexin binding buffer (10 mM HEPES/NaOH pH 7.4; 140 mM NaCl; 2.5 mM CaCl2). Annexin V-FITC (Pharmingen) and 0.25 mg/mL 7-AAD (7-aminoactinomycin D, Molecular Probes, CA) were added and the tubes were incubated at room temperature in the dark for 15 minutes. Cells were then diluted with 200 microliters of Annexin binding buffer and analyzed immediately by flow cytometry. Viable cells were identified as failing to label with Annexin V or 7-AAD. Cells beginning to die label with Annexin V, and as membrane integrity is lost, will also label with 7-AAD. For each parthenolide derivative, the percentage of viable cells was determined after 24 hours of culture at a 10 micromolar concentration. Data are normalized to untreated control specimens. The data are in Table 1 for aminoparthenolide derivatives and Table 2 for the salts of some aminoparthenolides.
# Healthy human bone marrow cells were used in the above assay to test the cytotoxicity of parthenolide. Eighty-five percent of the normal cells survived 10 μM of parthenolide. All the aminoparthenolides evaluated afforded results similar to parthenolide, i.e. the survival rate of healthy human bone marrow cells was over 85% at a concentration of 10 μM.
# [3] = test system: AML cells (AML stem cell compartment); assay: Human-mouse xenograft: NOD/SCID engraftment of AML cells treated in vitro; format: in vivo, human cells in NOD/SCID mice; settings: 7.5 micromolar in vitro for 12-18 hours, bone marrow analysed after 6-8 weeks (CD45)
# Experimental: (§1) To assess the effect of parthenolide on primary human stem cell populations, experiments were conducted using transplantation into immune deficient NOD/SCID mice. […] For each experiment, cryopreserved mononuclear cell specimens from normal or AML donors were thawed, and treated in vitro with 7.5 micromolar parthenolide for 12-18 hours. Following culture, 5-10 million cells/animal were injected intravenously into sublethally irradiated (300 Rad) NOD/SCID mice. After 6-8 weeks, animals were sacrificed and bone marrow was analyzed for the presence of human cells using flow cytometry as previously described (Guzman et al., Proc Natl Acad Sci USA 2002; 99: 16220-162253). Human specific antibodies for CD45 were used to assess the level of total engraftment.
# [4] = test system: normal hematopoietic stem cells; assay: Human-mouse xenograft: NOD/SCID engraftment of normal donor cells treated in vitro; format: in vivo; settings: 7.5 micromolar in vitro for 12-18 hours, bone marrow analysed after 6-8 weeks (CD45)
# Experimental: as §1
# [5] = test system: hormone refractory prostate cancer cell line CWR22Rv1; assay: MTS-PMS cellular proliferation assay; format: cell-based; settings: at 5 μm, CWR22 MTS-PMS assay
# Experimental: (§2) A 96-well U-bottomed plate (Becton Dickinson Labware, Franklin Lakes, N.J.) at a concentration of 5,000 cells per 50 microliters […] of media was incubated in 5% CO2 at 37° C. for 24 hours. Varying compound concentrations in […] of media were added to the media 24 hours later. Colorimetric readings were obtained using the MTS/PMS system and an ELISA plate reader, after 48 hours of exposure to DMAPT. The readings obtained for each concentration tested were from an average of eight wells. Each experiment was expressed as a percentage of the solvent control and completed at least three times with consistent results. The results presented are an average of three experiments. The hormone refractory prostate cancer cell line CWR22Rv1 was treated with increasing concentrations of parthenolide and DMAPT. for three hours Both parthenolide and DMAPT reduced cellular proliferation by 50% at 5 μm in the CWR22 MTS-PMS assay. Cellular proliferation was also measured in the MTS-PMS assay using four lung cancer cell lines treated with parthenolide and derivatives PIPT ((11S,11,13-dihydro,13-(piperidin-1-yl)parthenolide), 4MEPT (11S,11,13-dihydro,13-(4-methylpiperidin-1-yl)parthenolide) and MAPT (11S,11,13-dihydro,13-dimethylaminoparthenolide). Parthenolide and its derivatives inhibited cellular proliferation in a dose dependent manner between 2 and 10 μM with 70% inhibition at 10 μM in A549, 50% in H460, 40% in H-23 and 40% in H522 (FIGS. 2-5).
# [6] = test system: lung cancer cell line A549; assay: MTS-PMS cellular proliferation assay; format: cell-based; settings: Homo sapiens
# Experimental: as §2
# [7] = test system: lung cancer cell line H-23; assay: MTS-PMS cellular proliferation assay; format: cell-based
# Experimental: as §2
# [8] = test system: lung cancer cell line H460; assay: MTS-PMS cellular proliferation assay; format: cell-based; settings: Homo sapiens, NCI-H460
# Experimental: as §2
# [9] = test system: lung cancer cell line H522; assay: MTS-PMS cellular proliferation assay; format: cell-based; settings: Homo sapiens, NCI-H522
# Experimental: as §2
# [10] = test system: breast cancer cell line hbl-100; assay: Clonogenic assay; format: cell-based; settings: hbl-100, 2 μm concentration (parthenolide: similar dosage ranges)
# [11] = test system: breast cancer cell line mdl-231; assay: Clonogenic assay; format: cell-based; settings: mdl-231, 2 μm concentration (parthenolide: similar dosage ranges)
# [12] = test system: breast cancer cell line 436; assay: Clonogenic assay; format: cell-based; settings: 436 cells, 2 μm concentration (parthenolide: similar dosage ranges)
# [13] = Oral bioavailability in mice: plasma level by LC-MS; format: in vivo; settings: mouse, 40 mg/kg oral, LC-MS, average of 5 mice, read-out: plasma level one hour after oral gavage
# Experimental: Preliminary in vivo work was conducted to determine the bioavailability and toxicity of this agent in mice.
# [14] = test system: radiation sensitive cell line A549; assay: Radiation sensitisation by pretreatment, survival fraction; format: cell-based; settings: A549, 2.5 micromolar pretreatment
# From the text: The radiation sensitive cell line A549 was pretreated with parthenolide concentrations ranging from 0 to 2.5 micromolar. The cells were then subjected to ionizing radiation doses ranging from 0-6Gy and survival fraction of the cells determined. […] Cells not receiving pre-treatment with parthenolide had greater than 50% survival fraction at the highest radiation dose of 6Gy and over 90% survival at 2Gy.
# [15] = 10 μM, normalized to untreated control
Molecule,"Antileukemic activity [1, 15]",other results
"11S,11,13-Dihydro,13-(4-methylpiperidin-1-yl)parthenolide [Compound 4MePipPT]","10 μM, 83%",–
"11S,11,13-Dihydro,13-(morpholin-1-yl)parthenolide [MorPT]",–,"Antileukemic activity ([1]; 20 μM): 20 μM, 20%"
"11S,11,13-Dihydro,13-(pyrrolidin-1-yl)parthenolide [PyrPT]","10 μM, 85%","Antileukemic activity ([1]; 5 μM): 5 μM, 23%; Antileukemic activity ([1]; 20 μM): 20 μM, 95%"
"11S,11,13-Dihydro,13-(tert-butylamino)parthenolide [tBAPT]","10 μM, 20%",–
"11S,11,13-Dihydro,13-diethylaminoparthenolide [DEAPT]","10 μM, 60%",–
"11S,11,13-Dihydro,13-methyl pentyl aminoparthenolide","10 μM, 45%",–
"11S,11,13-Dihydro,13-methylbutyl aminoparthenolide","10 μM, 68%",–
"11S,11,13-dihydro,13-(piperidin-1-yl)parthenolide hydrochloride","10 μM, 88%",–
"11S, 11,13-Dihydro,13-(4-methylpiperidin-1-yl)parthenolide hydrochloride","10 μM, 62%",–
"C=C1CCC2C(CN(CC)CC)C(=O)OC2C2C(=C)CCC12 (centres unmarked) [11H, 13-(N,N-Diethylamino)-dehydrocostuslactone]","10 μM, 5%",–
"C=C1CCC2C(CN(C)C)C(=O)OC2C2C(=C)CCC12 (centres unmarked) [11H, 13-(N,N-Dimethylamino)-dehydrocostuslactone]","10 μM,12%",–
"C=C1CCC2C(CN(C)CCCC)C(=O)OC2C2C(=C)CCC12 (centres unmarked) [11H, 13-(N-Butyl-N-methylamino)-dehydrocostuslactone]","10 μM, 8%",–
"C=CCN(CC=C)CC1C(=O)OC2C1CCC(=C)C1CCC(=C)C12 (centres unmarked) [11H, 13-(N-Diallyl)-dehydrocostuslactone]","10 μM, 2%",–
"C=C1CCC2C(CN(CC)Cc3ccccc3)C(=O)OC2C2C(=C)CCC12 (centres unmarked) [11H, 13-(N-Ethyl-N-benzyl)-dehydrocostuslactone]","10 μM, 13%",–
"C=C1CCC2C(CN(C)CCCCC)C(=O)OC2C2C(=C)CCC12 (centres unmarked) [11H, 13-(N-Methyl-N-pentylamino)-dehydrocostuslactone]","10 μM, 0%",–
"C=C1CCC2C(CN(C)CCC)C(=O)OC2C2C(=C)CCC12 (centres unmarked) [11H, 13-(N-Methyl-N-propylamino)-dehydrocostuslactone]","10 μM, 1%",–
"C=C1CCC2C(CN3CCOCC3)C(=O)OC2C2C(=C)CCC12 (centres unmarked) [11H, 13-(N-Morpholine)-dehydrocostuslactone]","10 μM, 10%",–
"C=C1CCC2C(CN3CCCCC3)C(=O)OC2C2C(=C)CCC12 (centres unmarked) [11H, 13-(N-Piperidine)-dehydrocostuslactone]","10 μM, 14%",–
"C=C1CCC2C(CNCCC)C(=O)OC2C2C(=C)CCC12 (centres unmarked) [11H, 13-(N-Propylamino)-dehydrocostuslactone]","10 μM, 24%",–
"C=C1CCC2C(CN3CCCC3)C(=O)OC2C2C(=C)CCC12 (centres unmarked) [11H, 13-(N-Pyrrolidine)-dehydrocostuslactone]","10 μM, 20%",–
"CC1=CCCC2(C)OC2C2OC(=O)C(CNC3CC3)C2CC1 (centres unmarked) [11S,11,13-Dihydro,13-cyclopropylaminoparthenolide]","10 μM, −6%",–
"CCNCC1C(=O)OC2C1CCC(C)=CCCC1(C)OC21 (centres unmarked) [11S,11,13-Dihydro,13-ethylaminoparthenolide]","10 μM, 2%",–
"CNC[C@H]1C(=O)O[C@H]2[C@H]1CC/C(C)=C/CC[C@@]1(C)O[C@@H]21 [11S,11,13-Dihydro,13-methylaminoparthenolide]","10 μM, 4%",–
"C#CCNCC1C(=O)OC2C1CCC(C)=CCCC1(C)OC21 (centres unmarked) [11S,11,13-Dihydro,13-propargylaminoparthenolide]","10 μM, 7%",–
"CC1=CCCC2(C)OC2C2OC(=O)C(CN3CCCC3)C2CC1.Cl (centres unmarked) [11S, 11,13-Dihydro,13-(pyrrolidin-1-yl)parthenolide hydrochloride]","10 μM, 85%",–
"C/C1=C\CC[C@@]2(C)O[C@H]2[C@H]2OC(=O)[C@H](CN3CCN(C)CC3)[C@@H]2CC1 [Compound 4MePizPT, 11S,11,13-Dihydro,13-(4-methylpiperazin-1-yl)parthenolide]","10 μM, 7%",–
"CC1=CCCC2(C)OC2C2OC(=O)C(CN3CCCCCCC3)C2CC1 (centres unmarked) [HeptaMePipt, 11S,11,13-Dihydro,13-(heptamethyleneimin-1-yl)parthenolide]","10 μM, 10%",–
"CC1=CCCC2(C)OC2C2OC(=O)C(CN3CCCCCC3)C2CC1 (centres unmarked) [HomoPipPT, 11S,11,13-Dihydro,13-(homopiperidin-1-yl)parthenolide]","10 μM, 40%",–
C=C1C(=O)O[C@@H]2[C@H]3O[C@]3(C)CC/C=C(\C)CC[C@@H]12 [Parthenolide],"10 μM, 84%",survival rate of healthy human bone marrow cells [2]: Eighty-five; level of engraftment of treated AML cells in NOD/SCID mice [3]: dramatically reduced; level of engraftment of treated normal cells in NOD/SCID mice [4]: no reduction in engraftment; reduction of cellular proliferation [5]: 50%; inhibition at 10 µM [6]: 70%; inhibition at 10 µM [7]: 40%; inhibition at 10 µM [8]: 50%; inhibition at 10 µM [9]: 40%; inhibition of proliferation [10]: reduced proliferation; inhibition of proliferation [11]: reduced proliferation; inhibition of proliferation [12]: reduced proliferation; concentration at 1 h [13]: ~200 nM; survival fraction ([14]; 2Gy): 10%; survival fraction ([14]; 6Gy): less than 1%
"C/C1=C\CC[C@@]2(C)O[C@H]2[C@H]2OC(=O)[C@H](CN3CCCCC3)[C@@H]2CC1 [PipPT, 11S,11,13-Dihydro,13-(piperidin-1-yl)parthenolide]",–,"Antileukemic activity ([1]; 2.5 μM): 2.5 μM, 71%; Antileukemic activity ([1]; 5 μM): v5 μM, 91%"
